Like-named read-outs stand apart in the source and are kept apart here.
Columns and labels:
[1] = rat, cited from earlier work
[2] = test set ref Gratton et al. 1997
[3] = 5-50uM self-inhibition, test set ref Summerfield et al. 2007
[4] = Kd (nonsaturable component) ref Smith et al. 1986

Cc1ccsc1C(=CCCN1CCC[C@@H](C(=O)O)C1)c1sccc1C [tiagabine]
logPS(obs) ([1]; 5-50uM self-inhibition, training set ref Summerfield et al. 2007): −2.46 mL/g/s

Cc1ncc2n1-c1ccc(Cl)cc1C(c1ccccc1F)=NC2 [midazolam]
logPS(obs) ([1]; in vivo): −1.17 mL/g/s

NC(N)=S [thiourea]
logPS(obs) [1, 2]: −3.36 mL/g/s

OC[C@H]1O[C@@](CO)(O[C@H]2O[C@H](CO)[C@@H](O)[C@H](O)[C@H]2O)[C@@H](O)[C@@H]1O [sucrose]
logPS(obs) [1, 2]: −5.30 mL/g/s

CN1CCN2c3ncccc3Cc3ccccc3C2C1 (stereo not drawn) [mirtazapine]
logPS(obs) [1, 3]: −1.39 mL/g/s

C[C@]12CC[C@H]3[C@@H](CCC4=CC(=O)CC[C@@]43C)[C@@H]1CC[C@@H]2O [testosterone]
logPo^PAMPA: −2.83

OC[C@@H](O)[C@@H](O)[C@H](O)[C@H](O)CO [mannitol]
logPS(obs) [1, 2]: −5.01 mL/g/s

CC(C)[C@H](N)C(=O)O [L-valine]
logPS(obs) [1, 4]: −4.41 mL/g/s

CCC1(C)CC(=O)NC1=O (stereo not drawn) [ethosuximide]
logPS(obs) [1, 3]: −2.47 mL/g/s

NNCCc1ccccc1 [phenelzine]
logPS(obs) [1, 3]: −2.67 mL/g/s

NC1(C(=O)O)CCCCC1 [1-aminocyclohexanecarboxylic acid]
logPS(obs) ([1]; Kd (nonsaturable component) ref Aoyagi et al. 1988): −4.00 mL/g/s

CCCC(C)(COC(N)=O)COC(N)=O [meprobamate]
logPS(obs) [1, 3]: −3.09 mL/g/s

CN(C)C(=O)C(CCN1CCC(O)(c2ccc(Cl)cc2)CC1)(c1ccccc1)c1ccccc1 [loperamide]
logPo^PAMPA: 0.15

O=c1n(CCCN2CCN(c3cccc(Cl)c3)CC2)nc2ccccn12 [trazodone]
logPS(obs) [1, 3]: −1.47 mL/g/s

Clc1ccc2c(c1)C(N1CCNCC1)=Nc1ccccc1O2 [amoxapine]
logPS(obs) [1, 3]: −1.18 mL/g/s

CC(C)C[C@H](N)C(=O)O [L-leucine]
logPS(obs) [1, 4]: −4.08 mL/g/s

CN1CCCCC1CCN1c2ccccc2Sc2ccc([S+](C)[O-])cc21 (stereo not drawn) [mesoridazine]
logPS(obs) [1, 3]: −1.81 mL/g/s

O=C1Cc2cc(CCN3CCN(c4nsc5ccccc45)CC3)c(Cl)cc2N1 [ziprasidone]
logPS(obs) [1, 3]: −1.73 mL/g/s

Cc1c(N2C[C@@H](N)C3(CC3)C2)c(F)c(N)c2c(=O)c(C(=O)O)cn(C3CC3)c12 [HSR-903]
logPS(obs) ([1]; 20 mM self-inhibition ref Murata et al. 1999): −3.14 mL/g/s

CCN(C(C)=O)c1cccc(-c2ccnc3c(C#N)cnn23)c1 [zaleplon]
logPS(obs) ([1]; in vivo): −2.25 mL/g/s

Nc1ccccc1C(=O)C[C@H](N)C(=O)O [L-kynurenine]
logPS(obs) ([1]; Kd (nonsaturable component) ref Momma et al. 1987): −4.16 mL/g/s

COc1ccc(C(CN(C)C)C2(O)CCCCC2)cc1 (stereo not drawn) [venlafaxine]
logPS(obs) ([1]; in vivo): −1.98 mL/g/s

OCCO [ethylene glycol]
logPS(obs) ([1]; in vivo): −2.99 mL/g/s

Cc1nc2n(c(=O)c1CCN1CCC(c3noc4cc(F)ccc34)CC1)CCCC2 [risperidone]
logPo^PAMPA: −2.01

CCCN1C[C@H](CSC)C[C@@H]2c3cccc4[nH]cc(c34)C[C@H]21 [pergolide]
logPS(obs) [1, 3]: −1.00 mL/g/s

OC[C@@H](O)[C@@H](O)CO [erythritol]
logPS(obs) [1, 2]: −4.57 mL/g/s

Nc1nnc(-c2cccc(Cl)c2Cl)c(N)n1 [lamotrigine]
logPS(obs) [1, 3]: −2.67 mL/g/s

CN(C)CCc1c[nH]c2ccc(Cn3cncn3)cc12 [rizatriptan]
logPS(obs) [1, 3]: −3.76 mL/g/s

N[C@@H](Cc1ccc(N(CCCl)CCCl)cc1)C(=O)O [melphalin]
logPS(obs) ([1]; in vivo): −3.28 mL/g/s

OCCOCCN1CCN(C(c2ccccc2)c2ccc(Cl)cc2)CC1 (stereo not drawn) [hydroxyzine]
logPo^PAMPA: −1.50

CN1C[C@H](C(=O)N[C@]2(C)O[C@@]3(O)[C@@H]4CCCN4C(=O)[C@H](Cc4ccccc4)N3C2=O)C=C2c3cccc4[nH]cc(c34)C[C@H]21 [ergotamine]
logPS(obs) ([1]; in vivo): −2.06 mL/g/s

C[C@]12CC[C@@H]3c4ccc(O)cc4CC[C@H]3[C@@H]1CC[C@@H]2O [estradiol]
logPo^PAMPA: −3.08

CN1CCN(CCCN2c3ccccc3Sc3ccc(C(F)(F)F)cc32)CC1 [trifluoperazine]
logPS(obs) [1, 3]: −1.88 mL/g/s

OCCN1CCN(CCCN2c3ccccc3Sc3ccc(C(F)(F)F)cc32)CC1 [fluphenazine]
logPS(obs) [1, 3]: −1.87 mL/g/s

Nc1c(O)cccc1C(=O)CC(N)C(=O)O (stereo not drawn) [3-hydroxykynurenine]
logPS(obs) ([1]; Kd (nonsaturable component) ref Fukui et al. 1991): −4.49 mL/g/s

CNCC[C@@H](Oc1ccccc1C)c1ccccc1 [atomoxetine]
logPS(obs) [1, 3]: −1.39 mL/g/s
